Measured values as given in patent US4663329A, “Thienopyridinone derivatives and anti-bacterial compositions containing them” (Sanofi, priority 1984, dated 1987).
≈ marks a conversion by molar mass, not a printed value. Where two headings read alike, the source gives them in different places.

Key:
Type in all cases: cell-based
[1] = system: Staphylococcus aureus 53154 IP; test: In vitro antibacterial activity, MIC, Staphylococcus aureus 53154 IP
Method: (§1) Tests carried out in vitro in accordance with the experimental procedure described hereunder have provided evidence of the antibacterial activity in question.
(§2) For this purpose, the M.I.C. were determined i.e. the minimal inhibiting concentrations of the compound under study acting on the growth of the bacteria at 37° C.
(§3) The serial dilutions method was used utilizing a MUELLER HINTON gelose medium at pH=7.4 and a bacterial inoculum of 10^4 units forming colonies. This inoculum was applied to the gelose by means of a multiple sowing device.
(§4) A scale of concentrations ranging from 100 to 0.05 μg/ml of compound to be studied was used starting from mother solutions titrating 1000 μg/ml, all the subsequent dilutions being effected in distilled water.

[2] = system: Streptococcus faecalis 5855 IP; test: In vitro antibacterial activity, MIC, Streptococcus faecalis 5855 IP; conditions: Enterococcus faecalis, 37° C., pH=7.4, inoculum 10^4, read-out: MIC
Method: as §1, §2, §3, §4

[3] = system: Bacillus subtilis ATCC 6633; test: In vitro antibacterial activity, MIC, Bacillus subtilis ATCC 6633; conditions: ATCC6633; Bacillus subtilis ATCC 6633; 37° C., pH=7.4, inoculum 10^4; read-out: MIC
Method: as §1, §2, §3, §4

[4] = system: Escherichia coli 54127 IP; test: In vitro antibacterial activity, MIC, Escherichia coli 54127 IP
Method: as §1, §2, §3, §4

[5] = system: Escherichia coli SOL RL 90; test: In vitro antibacterial activity, MIC, Escherichia coli SOL RL 90; conditions: SOLRL90
Method: as §1, §2, §3, §4

[6] = system: Citrobacter freundii GN 346; test: In vitro antibacterial activity, MIC, Citrobacter freundii GN 346; conditions: GN346
Method: as §1, §2, §3, §4

[7] = system: Proteus vulgaris RL 99 bis; test: In vitro antibacterial activity, MIC, Proteus vulgaris RL 99 bis; conditions: RL99BIS
Method: as §1, §2, §3, §4

[8] = system: Proteus mirabilis ATCC 21100; test: In vitro antibacterial activity, MIC, Proteus mirabilis ATCC 21100; conditions: ATCC21100; Proteus mirabilis ATCC 21100; 37° C., pH=7.4, inoculum 10^4; read-out: MIC
Method: as §1, §2, §3, §4

Proteus morganii 1510 = test: In vitro antibacterial activity, MIC, Proteus morganii 1510; conditions: Morganella morganii
Method: as §1, §2, §3, §4

[9] = system: Providencia stuartii 5158; test: In vitro antibacterial activity, MIC, Providencia stuartii 5158
Method: as §1, §2, §3, §4

[10] = system: Serratia liquefaciens 376; test: In vitro antibacterial activity, MIC, Serratia liquefaciens 376; conditions: 37° C., pH=7.4, inoculum 10^4, read-out: MIC
Method: as §1, §2, §3, §4

[11] = system: Klebsiella pneumoniae ATCC 10031; test: In vitro antibacterial activity, MIC, Klebsiella pneumoniae ATCC 10031; conditions: ATCC10031; Klebsiella pneumoniae ATCC 10031; 37° C., pH=7.4, inoculum 10^4; read-out: MIC
Method: as §1, §2, §3, §4

[12] = system: Klebsiella pneumoniae R 30; test: In vitro antibacterial activity, MIC, Klebsiella pneumoniae R 30; conditions: R30
Method: as §1, §2, §3, §4

[13] = system: Enterobacter cloacae P 99; test: In vitro antibacterial activity, MIC, Enterobacter cloacae P 99; conditions: Enterobacter cloacae, P99
Method: as §1, §2, §3, §4

[14] = system: Enterobacter hafniae RO 46; test: In vitro antibacterial activity, MIC, Enterobacter hafniae RO 46; conditions: Hafnia alvei, RO46
Method: as §1, §2, §3, §4

Shigella sonnei R 018 = test: In vitro antibacterial activity, MIC, Shigella sonnei R 018; conditions: R018, 37° C., pH=7.4, inoculum 10^4
Method: as §1, §2, §3, §4

[15] = system: Salmonella typhimurium A 222 IP; test: In vitro antibacterial activity, MIC, Salmonella typhimurium A 222 IP; conditions: Salmonella enterica
Method: as §1, §2, §3, §4

[16] = system: Salmonella typhi ATCC 6539; test: In vitro antibacterial activity, MIC, Salmonella typhi ATCC 6539; conditions: Salmonella enterica
Method: as §1, §2, §3, §4

[17] = system: Bordetella bronchiseptica ATCC 4617; test: In vitro antibacterial activity, MIC, Bordetella bronchiseptica ATCC 4617; conditions: ATCC4617, 37° C., pH=7.4, inoculum 10^4, read-out: MIC
Method: as §1, §2, §3, §4

[18] = system: Pseudomonas aeruginosa 8203; test: In vitro antibacterial activity, MIC, Pseudomonas aeruginosa 8203; conditions: 37° C., pH=7.4, inoculum 10^4, read-out: MIC
Method: as §1, §2, §3, §4

[19] = system: Acinetobacter calcoaceticus C 1733; test: In vitro antibacterial activity, MIC, Acinetobacter calcoaceticus C 1733; conditions: C1733, 37° C., pH=7.4, inoculum 10^4, read-out: MIC
Method: as §1, §2, §3, §4

[20] = Escherichia coli 54127 IP, 37° C., pH=7.4, inoculum 10^4, read-out: MIC
[21] = Proteus vulgaris RL 99 bis, 37° C., pH=7.4, inoculum 10^4, read-out: MIC
[22] = Staphylococcus aureus 53154 IP, 37° C., pH=7.4, inoculum 10^4, read-out: MIC
[23] = Escherichia coli SOL RL 90, 37° C., pH=7.4, inoculum 10^4, read-out: MIC
[24] = Citrobacter freundii GN 346, 37° C., pH=7.4, inoculum 10^4, read-out: MIC
[25] = Providencia stuartii 5158, 37° C., pH=7.4, inoculum 10^4, read-out: MIC
[26] = Klebsiella pneumoniae R 30, 37° C., pH=7.4, inoculum 10^4, read-out: MIC
[27] = Salmonella typhimurium A 222 IP, 37° C., pH=7.4, inoculum 10^4, read-out: MIC

Question: What does the source list for `CCn1cc(C(=O)O)c(=O)c2cc(C=NOC)sc21` [Compound D, 4,7-Dihydro-7-ethyl-2-methoxyiminomethyl-4-oxo-thieno[2,3-b]pyridine-5-carboxylic acid]?
Answer: MIC ([1]; Staphylococcus aureus, 53154IP): 1.56 µg/mL (≈ 5.57 µM); MIC [2]: > 100 µg/mL; MIC [3]: 0.78 µg/mL (≈ 2.78 µM); MIC [4, 20]: 0.78 µg/mL (≈ 2.78 µM); MIC ([5]; Escherichia coli): 3.12 µg/mL (≈ 11.1 µM); MIC ([6]; Citrobacter freundii): 3.12 µg/mL (≈ 11.1 µM); MIC [7, 21]: 0.78 µg/mL (≈ 2.78 µM); MIC [8]: 0.78 µg/mL (≈ 2.78 µM); MIC (Proteus morganii 1510; 1510): 3.12 µg/mL (≈ 11.1 µM); MIC ([9]; Providencia stuartii, 5158): 3.12 µg/mL (≈ 11.1 µM); MIC [10]: 50 µg/mL (≈ 178 µM); MIC [11]: 0.2 µg/mL (≈ 0.714 µM); MIC ([12]; Klebsiella pneumoniae): 3.12 µg/mL (≈ 11.1 µM); MIC [13]: 1.56 µg/mL (≈ 5.57 µM); MIC [14]: 1.56 µg/mL (≈ 5.57 µM); MIC (Shigella sonnei R 018): 1.56 µg/mL (≈ 5.57 µM); MIC ([15]; TYPHIMURIUM): 3.12 µg/mL (≈ 11.1 µM); MIC [16]: 3.12 µg/mL (≈ 11.1 µM); MIC [17]: 12.5 µg/mL (≈ 44.6 µM); MIC [18]: > 100 µg/mL; MIC [19]: > 100 µg/mL

Question: What does the source list for `CCn1cc(C(=O)O)c(=O)c2cc(C=Nc3ccccc3)sc21` [Compound J, 4,7-Dihydro-7-ethyl-2-N-phenyl-iminomethyl-4-oxo-thieno[2,3-b]pyridine-5-carboxylic acid]?
Answer: MIC [1, 22]: > 100 µg/mL; MIC [2]: > 100 µg/mL; MIC ([4]; Escherichia coli, 54127IP): 3.12 µg/mL (≈ 9.56 µM); MIC [5, 23]: 6.25 µg/mL (≈ 19.1 µM); MIC [6, 24]: 12.5 µg/mL (≈ 38.3 µM); MIC ([7]; Proteus vulgaris): 3.12 µg/mL (≈ 9.56 µM); MIC [8]: 12.5 µg/mL (≈ 38.3 µM); MIC (Proteus morganii 1510; 1510): 3.12 µg/mL (≈ 9.56 µM); MIC [9, 25]: 12.5 µg/mL (≈ 38.3 µM); MIC [10]: > 100 µg/mL; MIC [11]: 50 µg/mL (≈ 153 µM); MIC [12, 26]: 25 µg/mL (≈ 76.6 µM); MIC [13]: 50 µg/mL (≈ 153 µM); MIC [14]: 3.12 µg/mL (≈ 9.56 µM); MIC (Shigella sonnei R 018): 3.12 µg/mL (≈ 9.56 µM); MIC [15, 27]: 6.25 µg/mL (≈ 19.1 µM); MIC [16]: 25 µg/mL (≈ 76.6 µM); MIC [17]: > 100 µg/mL; MIC [18]: > 100 µg/mL; MIC [19]: > 100 µg/mL

Question: Which results are given for `CCn1cc(C(=O)O)c(=O)c2cc(C(=O)O)sc21` [Compound X, 4,7-dihydro-7-ethyl-2-carboxy-4-oxo-thieno[2,3-b]pyridine-5-carboxylic acid, reference compound]?
Answer: MIC [1, 22]: > 100 µg/mL; MIC [2]: > 100 µg/mL; MIC [4, 20]: > 100 µg/mL; MIC [5, 23]: > 100 µg/mL; MIC [6, 24]: > 100 µg/mL; MIC [7, 21]: > 100 µg/mL; MIC [8]: > 100 µg/mL; MIC (Proteus morganii 1510; Proteus morganii 1510, 37° C., pH=7.4, inoculum 10^4, read-out: MIC): > 100 µg/mL; MIC [9, 25]: > 100 µg/mL; MIC [10]: > 100 µg/mL; MIC [11]: > 100 µg/mL; MIC [12, 26]: > 100 µg/mL; MIC [13]: > 100 µg/mL; MIC ([14]; Enterobacter hafniae RO 46, 37° C., pH=7.4, inoculum 10^4, read-out: MIC): > 100 µg/mL; MIC (Shigella sonnei R 018): > 100 µg/mL; MIC [15, 27]: > 100 µg/mL; MIC [16]: > 100 µg/mL; MIC [17]: > 100 µg/mL; MIC [18]: > 100 µg/mL; MIC [19]: > 100 µg/mL

Question: For `CCn1cc(C(=O)O)c(=O)c2cc([N+](=O)[O-])sc21` [Compound Y, 4,7-dihydro-7-ethyl-2-nitro-4-oxo-thieno[2,3-b]pyridine-5-carboxylic acid, reference compound], which MIC [1, 22] is on record?
Answer: > 100 µg/mL

Question: And the MIC [2]?
Answer: > 100 µg/mL

Question: What about the MIC ([4]; Escherichia coli, 54127IP) of the same compound?
Answer: 3.12 µg/mL (≈ 11.6 µM)

Question: What about the MIC [5, 23] of the same compound?
Answer: 6.25 µg/mL (≈ 23.3 µM)

Question: And the MIC [6, 24]?
Answer: 12.5 µg/mL (≈ 46.6 µM)

Question: What about the MIC ([7]; Proteus vulgaris) of the same compound?
Answer: 3.12 µg/mL (≈ 11.6 µM)

Question: What about the MIC [8] of the same compound?
Answer: 12.5 µg/mL (≈ 46.6 µM)

Question: What about the MIC (Proteus morganii 1510; 1510) of the same compound?
Answer: 3.12 µg/mL (≈ 11.6 µM)

Question: And the MIC [9, 25]?
Answer: 12.5 µg/mL (≈ 46.6 µM)

Question: What about the MIC [10] of the same compound?
Answer: > 100 µg/mL

Question: And the MIC [11]?
Answer: 50 µg/mL (≈ 186 µM)

Question: What about the MIC [12, 26] of the same compound?
Answer: 25 µg/mL (≈ 93.2 µM)

Question: And the MIC [13]?
Answer: 50 µg/mL (≈ 186 µM)

Question: What about the MIC [14] of the same compound?
Answer: 3.12 µg/mL (≈ 11.6 µM)

Question: What about the MIC (Shigella sonnei R 018) of the same compound?
Answer: 3.12 µg/mL (≈ 11.6 µM)

Question: And the MIC [15, 27]?
Answer: 6.25 µg/mL (≈ 23.3 µM)

Question: And the MIC [16]?
Answer: 25 µg/mL (≈ 93.2 µM)

Question: And the MIC [17]?
Answer: > 100 µg/mL

Question: What about the MIC [18] of the same compound?
Answer: > 100 µg/mL

Question: And the MIC [19]?
Answer: > 100 µg/mL
